The supplement of paper PMC5412046
Structures can show the parent of a compound that is named as a salt.

Columns and labels:
SB.msgc-1 = test: AC50 for growth inhibition (viability) (log10 M); higher = less potent; settings: SB.msgc-1 (sporadic gastric cancer)
How it was run: (§1)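 Gastric cancer cells derived from patients with hereditary or sporadic disease were seeded at 500 cells in 5 μL medium per 1536 well. A pintool delivered 23 nL of compound in DMSO, as 11 threefold dilutions from a final 46 μM. After 48 h, CellTiter-Glo was added for 30 min at room temperature and luminescence was read on a ViewLux. The log half-maximal activity concentration was taken from a four-parameter fit of viability normalised to DMSO, using only high-quality curve classes.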

SB.mhdgc-1 = test: as above; settings: SB.mhdgc-1 (hereditary c.1380delA CDH1 gastric cancer)
How it was run: as §1

Row | SMILES | AC50 for growth inhibition (log10 M) (SB.msgc-1) | AC50 for growth inhibition (log10 M) (SB.mhdgc-1)
1 | COc1cc(C)c(Sc2cnc(NC(=O)c3ccc(CNC(C)C(C)C)cc3)s2)cc1C(=O)N1CCN(C(C)=O)CC1 (configuration not stated) [ITK inhibitor] | -4.73 | -4.78
2 | COc1ccc([S+](=O)([O-])N(C(C)=O)c2ccccc2/C=C/c2cc[n+]([O-])cc2)cc1 [IVX-214] | -6.38 | -6.53
3 | COC1=CC=C(C=C1)/C2=C(O)/C(=O)C3=C(O)C=C(O)C(=C3O2)CC=C(C)C [Icaritin] | -4.63 | -4.88
4 | CC(=O)[C@]1(O)Cc2c(O)c3c(c(O)c2[C@@H](O[C@H]2C[C@H](N)[C@H](O)[C@H](C)O2)C1)C(=O)c1ccccc1C3=O [Idarubicin hydrochloride] | -6.63 | -7.38
5 | CC(C)Cn1cnc2c(N)nc3ccccc3c21 [Imiquimod] | -4.73 | -5.93
6 | O=C(Nc1ccncc1)C(=O)c1cn(Cc2ccc(Cl)cc2)c2ccccc12 [Indibulin] | -5.68 | -6.28
7 | CC(C)(C)NC(=O)[C@@H]1CN(Cc2cccnc2)CCN1C[C@@H](O)C[C@@H](Cc1ccccc1)C(=O)N[C@H]1c2ccccc2C[C@H]1O.O=S(=O)(O)O [Indinavir] | -4.78 | -6.08
8 | COc1ccc2c(c1)c(CC(=O)O)c(C)n2C(=O)c1ccc(Cl)cc1 [Indomethacin] | -5.93 | -6.03
9 | CCC1=C2C=C(OC(=O)N3CCC(CC3)N4CCCCC4)C=CC2=NC\5=C1CN6C(=O)\C7=C(/C=C56)[C@@](O)(CC)C(=O)OC7 [Irinotecan] | -6.73 | -6.78
10 | CC(C)NCC(O)c1ccc(O)c(O)c1 (configuration not stated) [Isoprenaline hydrochloride] | -4.83 | -5.43
11 | CC1=C(/C=C/C(C)=C/C=C/C(C)=C\C(=O)O)C(C)(C)CCC1 [Isotretinoin] | -5.33 | -4.63
12 | COC(=O)C\1=C(C)\N\C(=C(/C1C2=CC=CC3=NON=C23)C(=O)OC(C)C)C (configuration not stated) [Isradipine] | -4.78 | -5.38
13 | CC(C)C[C@H](NC(=O)CNC(=O)c1cc(Cl)ccc1Cl)B1OC(=O)CC(CC(=O)O)(C(=O)O)O1 (some centres not stated) [Ixazomib citrate] | -7.23 | -7.03
14 | CC(C)C[C@H](NC(=O)CNC(=O)c1cc(Cl)ccc1Cl)B(O)O [Ixazomib] | -7.03 | -6.63
15 | CC1=C(C)C2=C(S1)[N]3C(=NN=C3[C@H](CC(=O)OC(C)(C)C)/N=C2/C4=CC=C(Cl)C=C4)C [JQ1] | -5.38 | -5.28
16 | CCOC(=O)N1CCN(/[N+]([O-])=N/Oc2ccc([N+](=O)[O-])cc2C#N)CC1 [JS-59-4] | -5.13 | -4.78
17 | CCc1ccc(OCc2ccccc2C(=O)Nc2ccc3nc(C)cc(N)c3c2)cc1 [JTC-801] | -4.98 | -5.43
18 | CC(C)CNc1ccnc(NCc2csc(-c3ccccc3)n2)n1 [KHS101] | -4.78 | -4.78
19 | NC(CO)(CO)CCc1ccc(Sc2cccc(OCc3ccccc3)c2)cc1Cl [KRP 203] | -4.58 | -5.03
20 | O=C(Cc1ccc(-c2ccc(OCCN3CCOCC3)cc2)cn1)NCc1ccccc1 [KX-01] | -7.48 | -8.18
21 | OC1=CC=C(C=C1)\C2=C(O)\C(=O)C3=C(O2)C=C(O)C=C3O [Kaempferol] | -4.88 | -4.93
22 | O=C(c1ccccc1)c1ccc2n1CCC2C(=O)O (configuration not stated) [Ketorolac] | -5.78 | -5.98
23 | CN1CC/C(CC1)=C3\c4ccccc4CC(=O)c2sccc23 [Ketotifen] | -4.78 | -5.53

Row | SMILES | AC50 for growth inhibition (log10 M) (SB.msgc-1) | AC50 for growth inhibition (log10 M) (SB.mhdgc-1)
24 | Cc1cc(-c2ncc(CC(=O)Nc3ccc(-c4cnccn4)cn3)cc2C)ccn1 [LGK974] | -4.78 | -4.88
25 | N[S+](=O)([O-])c1cccc2c1C(=O)c1cccc(O)c1C2=O [LLL-12] | -6.63 | -6.98
26 | COc1cc(C(=O)N2CCC(N3CCN(C)CC3)CC2)ccc1Nc1ncc2c(n1)N(C)c1ccccc1C(=O)N2C [LRRK2-IN-1] | -4.83 | -4.78
27 | Nc1nnc(-c2cccc(Cl)c2Cl)c(N)n1 [Lamotrigine] | -4.63 | -4.53
28 | COc1cc2nccc(Oc3ccc(NC(=O)NC4CC4)c(Cl)c3)c2cc1C(N)=O [Lenvatinib] | -5.48 | -6.38
29 | C[C@@]12O[C@@H](C[C@]1(O)CO)n1c3ccccc3c3c4c(c5c6ccccc6n2c5c31)CNC4=O [Lestaurtinib] | -5.48 | -6.33
30 | C[C@]1(O)CC(C1)C2=NC(=C3[N]2C=CN=C3N)C4=CC5=C(C=C4)C=CC(=N5)C6=CC=CC=C6 (configuration not stated) [Linsitinib] | -4.78 | -5.03
31 | C[S+](=O)([O-])Oc1ccc2c(NC(N)=O)c(C(=O)c3ccc(Cl)cc3Cl)oc2c1 [Lirimilast] | -5.53 | -6.08
32 | NC(=O)N1CCC(CC(=O)N2CCC([C@H]3c4ncc(Br)cc4CCc4cc(Cl)cc(Br)c43)CC2)CC1 [Lonafarnib] | -4.78 | -4.78
33 | CN1\C(=C(O)/C2=C(C=C(Cl)S2)[S+]1([O-])=O)C(=O)NC3=NC=CC=C3 [Lornoxicam] | -5.43 | -5.88
34 | Cc1ccc(NC(=O)C2(c3ccc4c(c3)OC(F)(F)O4)CC2)nc1-c1cccc(C(=O)O)c1 [Lumacaftor] | -7.63 | -6.73
35 | CN(C)c1ccc(C(=O)NCCCCCCC(=O)NO)cc1 [M344] | -6.08 | -5.83
36 | CCC[C@@H](C=O)NC(=O)[C@H](CC(C)C)NC(=O)[C@H](CC(C)C)NC(=O)OCc1ccccc1 [MG-115] | -5.88 | -5.98
37 | CC(C)C[C@@H](C=O)NC(=O)[C@H](CC(C)C)NC(=O)[C@H](CC(C)C)NC(=O)OCc1ccccc1 [MG-132] | -6.08 | -6.33
38 | COCCOc1nc(-c2ccc(Cl)c(Cl)c2)n(-c2ccc(NC(=O)CCl)cc2)n1 [MI-2] | -5.08 | -4.73
39 | NC1(c2ccc(-c3nc4ccn5c(=O)[nH]nc5c4cc3-c3ccccc3)cc2)CCC1 [MK-2206] | -4.68 | -6.13
40 | COC1=CC=C(C=C1)C2CC(=N/N2C3=CC=C(C=C3)[S+](N)([O-])=O)\C4=CC=CC=C4 (configuration not stated) [ML 141] | -4.73 | -4.68
41 | COc1c(Cl)cc2c([nH]c3cnccc32)c1NC(=O)c1cccnc1C [MLN-120B] | -5.23 | -5.83
42 | CNCCCC12CCC(c3ccccc31)c1ccccc12 [Maprotiline hydrochloride] | -4.63 | -4.78
43 | Cc1nnc(C(C)C)n1[C@@H]1C[C@H]2CC[C@@H](C1)N2CC[C@H](NC(=O)C1CCC(F)(F)CC1)c1ccccc1 [Maraviroc] | -4.78 | -5.18
44 | C[C@@]12OC(=O)[C@@]1(NC(=O)[C@@H]2CCCl)[C@@H](O)[C@H]\3CCC\C=C3 [Marizomib] | -7.48 | -7.68
45 | C[C@H]1C[C@@H]2[C@H](CC[C@@]3(C)[C@H]2CC[C@]3(OC(C)=O)C(C)=O)[C@@]\4(C)CCC(=O)\C=C14 [Medroxyprogesterone acetate] | -4.83 | -5.23
46 | COc1ccc2[nH]cc(CCNC(C)=O)c2c1 [Melatonin] | -5.83 | -5.33
